Results from paper PMC8851282, “Senolysis induced by 25-hydroxycholesterol targets CRYAB in multiple cell types” (iScience, 2022).

Tests used:
FAPs [1] = experiment: Cell viability assay (cell counting kit-8) of senescent and non-senescent FAPs treated with inhibitors; assay type: cell-based, mouse; conditions: for viability of senescent versus non-senescent FAPs: Doxo-induced senescence, viability on day 5, 25HC at concentrations between 0.1 and 1 μM; for IC50: FAPs
Description: (§1) Figure 3 25HC is a senolytic in multiple muscle cell types (A) Targets, compounds, and mechanisms. (B) Timeline of cell viability assay with inhibitors. Cells were pre-cultured for 24 h, treated with Doxo for 24 h, and then treated with inhibitors. Cell viability was analyzed from day 0–7. (C–E) Effects of inhibitors on viability of FAPs, SCs, and HSMMs. Cells were treated with inhibitors at the indicated concentrations. Cell viability was analyzed on day 3 (HSMMs) or 5 (FAPs and SCs). Blue and red dots indicate non-senescent (NS) and senescent (SEN), respectively. The average value at 0 μM for each group was set at 100% cell viability. p values versus NS were obtained using unpaired two-tailed Student’s t test. ∗p < 0.05, ∗∗p < 0.01, and ∗∗∗p < 0.001.
(§2) Figure 4 EC50 fitted curves (triplicates) of inhibitor effects at 3 and 7 days in FAPS and SCs EC50 was defined as the concentration of inhibitors that provokes a response halfway between baseline and maximum senolytic activity. EC50 values were determined by four- parameter logistic modeling using GraphPad Prism 8.0.
(§3) Hind limb muscles were digested in DMEM containing 0.5% (w/v) collagenase type II (Worthington) for 90 min at 37 °C with trituration and passed through a 40-μm nylon mesh. Erythrocytes were eliminated by treating with BD Pharm Lyse (BD Biosciences). Cells were resuspended in a washing buffer of PBS with 2% FBS and stained with antibodies for 30 min at 4 °C as described ([Kamizaki et al., 2017]). FAPs and SCs were isolated from the suspension by FACS (Aria II, BD Biosciences) using anti-CD31, CD45, Sca-1, PDGFR and VCAM1 antibodies. FAPs were identified as Sca1/PDGFR-positive and CD31-, CD45- and VCAM1-negative cells ([Uezumi et al., 2010]). SCs were identified as VCAM1-positive and CD31-, CD45-, Sca-1 and PDGFR-negative cells ([Liu et al., 2015]).
(§4) All experiments were performed in incubators at 37 °C, 3% O2 and 5% CO2. Senescence was induced by treatment with either Doxo (250 nM for 24 h) ([Demaria et al., 2017]) or X-irradiation (10 Gy) ([Limbad et al., 2020]). For cell culture studies using 25HC, it was used at the indicated concentrations in the media.
(§5) FAPs and SCs were cultured on Matrigel-coated dishes (BD Biosciences) in growth medium (GM) consisting of DMEM plus 10% FBS, 1% penicillin-streptomycin and 10% MyoCult (STEMCELL Technologies) for 7 days. Human myogenic cell HSMMs (Lonza) were maintained according to the manufacturer’s instructions with SkGM-2 medium (Lonza).
(§6) Cell viability was assessed using a cell counting kit-8 from Dojindo Molecular Technologies, Inc (Cat CK04-20). Cells were incubated with culture media + 10% kit cell viability reagent, 150 μL/well in 96-well plates for 2 h. The supernatant was transferred to a new 96-well plate and absorbance read at 450 nm as recommended in the product datasheet.

SCs [2] = experiment: Cell viability assay (cell counting kit-8) of senescent and non-senescent SCs treated with inhibitors; assay type: cell-based, mouse; conditions: for viability of senescent versus non-senescent SCs: Doxo-induced senescence, viability on day 5
Description: as §1, §2, §3, §4, §5, §6

[3] = system: human skeletal muscle myoblasts (HSMMs); experiment: Cell viability assay (cell counting kit-8) of senescent and non-senescent HSMMs treated with inhibitors; assay type: cell-based; conditions: for viability of senescent versus non-senescent HSMMs: Doxo-induced senescence, viability on day 3; for IC50: Homo sapiens, Myoblast, HSMM
Description: as §1, §4, §5, §6

[4] = system: mouse dermal fibroblasts (mDFs); experiment: Cell viability assay of NS and SEN mouse dermal fibroblasts treated with CRYAB and HMOX1 inhibitors; assay type: cell-based; conditions: 250 nM Doxo-induced senescence; after 72 h of treatment; 25HC at five or 10 μM
Description: The average value of DMSO was set at 1. (B and D) Effects of CRYAB and HMOX1 inhibitors on DMSO-treated NS or Doxo-treated SEN cells; (B) mDFs, (D) IMR-90s. Cells were treated with the inhibitors at the indicated concentrations. Cell viability was measured after 72 h. (C) IMR-90 qRT-PCR. For qPCR: mean +/- SE, n =4, ∗p< 0.05, ∗∗p< 0.01, ∗∗∗p<0.001, ∗∗∗∗p<0.0001 by Dunnett’s multiple comparisons test vs DMSO. For cell viability assays: mean +/- SE, n =3, ∗∗p< 0.01, ∗∗∗p<0.001, ∗∗∗∗p<0.0001 vs 0 mM by student’s t test.
For skin sample collection, mice were euthanized, hair removed from dorsal skin and the area cleaned with alcohol. A small 1 cm x 1 cm region of skin was removed, and subcutaneous fat removed by scalpel. Skin was digested in 2–3 ml of 0.25% trypsin at 37 °C for 1 h. Hair and epidermis were further removed, and the dermis was minced into 2–3 mm pieces. Digestion of the sample in 5 ml of 1 mg/ml collagenase (Sigma, Cat#C5138) in HBSS (with Ca^++ and Mg^++) (Gibco, cat#24020117) was carried out at 37 °C on a shaker for 1 h. Collagenase digestion was stopped by addition of 10 ml 10% FBS DMEM. Filtration of the homogenate through a 70-micron mesh was performed to remove undigested tissue. Differential centrifugation and washing were performed at 1200 rpm for 5 min, and the pellet was resuspended in 10% FBS DMEM then seeded in a six-well plate. Media were changed at 5 days after seeding and then every 3 days.
as §4, §6

[5] = system: Cdkn1a and Cryab mRNA in gastrocnemius and soleus muscles; experiment: qRT-PCR of senescence markers and Cryab in muscles of Doxo-treated mice given 25HC; assay type: in vivo, mouse; conditions: mice, 4 mg/kg Doxo i.p., 5 injections, versus PBS
Description: (§7) Figure 8 25HC induces senolysis in vivo in Doxo-treated mice (A) Timeline of 25HC treatment in Doxo-treated mice. Mice were given 4 mg/kg Doxo or PBS for 5 daily injections[A1], then injected with 25HC or vehicle for 7 consecutive days. (B) Mass of gastrocnemius muscles. Muscle weight was normalized to body weight. (C) Cdkn2a and Cryab mRNA levels in gastrocnemius (Gastroc) and soleus (Sol) muscles. RNA was collected 28–30 d after the first treatment with Doxo. mRNA levels were quantified by qRT-PCR, and normalized to actin mRNA levels. The average value of PBS-vehicle was set at 1. (D) 15-d-PGJ2 analysis in urine. Urine was collected at 24 h after the first treatment with 25HC or HbCD. p values versus PBS-Veh or Doxo-Veh are obtained using Tukey's multiple comparisons test. ∗p < 0.05, ∗∗p < 0.01, p < 0.001, and ∗∗∗∗p < 0.0001.
Male C57BL/6J mice (3–4 months old) were purchased from the Jackson Laboratory. We performed five i.p. injections with 4 mg/kg of Doxo (Tocris Bioscience, Product# 2252) for each injection over 10 days (Figure 6A). Therefore, we injected a total of 20 mg/kg of Doxo/mouse over 10 days. We used EFT-PBS (EMD Millipore, Product# TMS-012-A) as a control. To test effects of 25HC (Tocris Bioscience, Product# 5741) on Doxo-treated mice, we prepared three experimental groups (n=15 for each group): 1) PBS+HβCD vehicle (22.5%), 2) Doxo (20 mg/kg)+vehicle (22.5%), 3) Doxo (20 mg/kg)+25HC (50 mg/kg) (Figure 6A); 25HC was dissolved in 22.5% 2-hydroxypropyl-beta-cyclodextrin (HβCD) (Tocris Bioscience, Product 0708). On the Day 5 after the last Doxo/PBS injections, the mice were treated with either 25HC (50 mg/kg) or vehicle by i.p. injections for 7 consecutive days (Figure 6A). 12 hr after the first 25HC or vehicle treatments, urine was collected (Figure 6A) from each group to test for the senolysis marker 15-d-PGJ2. […] Senescence markers p16^INK4a, p21^Cip1 and CRYAB expression was analyzed on gastrocnemius (Gastroc), soleus (So), tibialis anterior (TA), visceral fat (VF), kidney (Ki), liver (Li), lung (Lu), heart (He), and skin (Sk) samples by qRT-PCR. […]

[6] = Body weight and gastrocnemius muscle weight in Doxo-treated mice; assay type: in vivo, mouse; conditions: 4 mg/kg Doxo i.p., 5 injections, versus PBS
Description: as §7
Male C57BL/6J mice (3–4 months old) were purchased from the Jackson Laboratory. We performed five i.p. injections with 4 mg/kg of Doxo (Tocris Bioscience, Product# 2252) for each injection over 10 days (Figure 6A). Therefore, we injected a total of 20 mg/kg of Doxo/mouse over 10 days. […] Senescence markers p16^INK4a, p21^Cip1 and CRYAB expression was analyzed on gastrocnemius (Gastroc), soleus (So), tibialis anterior (TA), visceral fat (VF), kidney (Ki), liver (Li), lung (Lu), heart (He), and skin (Sk) samples by qRT-PCR.

FAPs [7] = experiment: Senescence induction by Doxo in cultured primary FAPs (qRT-PCR of marker genes, growth rate); assay type: cell-based, mouse; conditions: 250 or 100 nM Doxo
SCs [8] = experiment: Senescence induction by Doxo in cultured primary SCs (qRT-PCR of marker genes, growth rate); assay type: cell-based, mouse; conditions: 250 or 100 nM Doxo
senescent cells = experiment: Senescent cell burden in mice treated with Doxo or Doxo + ABT; conditions: four-month-old male mice; Doxo 10 mg/kg; ABT 50 mg/kg/day after Doxo
SCs [9] = experiment: Single-cell RNA sequencing of SCs from skeletal muscle of mice treated with PBS, Doxo or Doxo + ABT (differential gene expression); conditions: four-month-old male mice; Doxo 10 mg/kg i.p.; ABT 50 mg/kg/day by gavage, 2 cycles of 5 days
FAPs [10] = experiment: Single-cell RNA sequencing of FAPs from skeletal muscle of mice treated with PBS, Doxo or Doxo + ABT (differential gene expression); conditions: for senescent FAPs in mouse skeletal muscle (scRNA seq): four-month-old male mice, Doxo 10 mg/kg i.p., ABT 50 mg/kg/day by gavage, 2 cycles of 5 days

Brc1ccc(CCC2(Cn3ccnc3)OCCO2)cc1.Cl [OB24]
viability of senescent versus non-senescent FAPs (FAPs [1]): slightly but significantly decreased the viability of FAPs
IC50 (FAPs [1]; 7 days in culture): 261 µM
viability of senescent versus non-senescent SCs (SCs [2]): no difference in killing
viability of senescent versus non-senescent HSMMs [3]: significantly decreased cell viability
senolysis in mDF cells [4]: ineffective

COc1cccc2c1C(=O)c1c(O)c3c(c(O)c1C2=O)C[C@@](O)(C(=O)CO)C[C@@H]3O[C@H]1C[C@H](N)[C@H](O)[C@H](C)O1 [Doxo, Doxorubicin]
Cdkn1A mRNA in gastrocnemius and soleus muscles [5]: significantly increased
body weight [6]: significantly decreased
gastrocnemius muscle weight normalized to body weight [6]: no difference
senescence induction in cultured FAPs (FAPs [7]): induced senescence
senescence induction in cultured SCs (SCs [8]): induced senescence
burden of senescent cells in mice (senescent cells): induced senescence
senescent SCs in mouse skeletal muscle (scRNA seq) (SCs [9]): induces senescence
senescent FAPs in mouse skeletal muscle (scRNA seq) (FAPs [10]): induces senescence

O=C(CC(c1ccccc1)c1ccccc1)Cn1ccnc1 [QC-308]
viability of senescent versus non-senescent FAPs (FAPs [1]): slightly but significantly decreased the viability of FAPs
viability of senescent versus non-senescent SCs (SCs [2]): no difference in killing
viability of senescent versus non-senescent HSMMs [3]: significantly decreased cell viability
senolysis in mDF cells [4]: ineffective

CC1(C)CCC(c2ccc(Cl)cc2)=C(CN2CCN(c3ccc(C(=O)NS(=O)(=O)c4ccc(N[C@H](CCN5CCOCC5)CSc5ccccc5)c(S(=O)(=O)C(F)(F)F)c4)cc3)CC2)C1 [ABT263]
IC50 (FAPs [1]; Mus musculus, 72 h, 3 days in culture): 14.7 µM
IC50 (FAPs [1]; Mus musculus, 168 h, 7 days in culture): 7.5 µM
IC50 (SCs [2]; Mus musculus, 168 h, SCs, 7 days in culture): 14.1 µM
IC50 ([3]; 72 h, 3 days in culture): 15.2 µM
IC50 ([3]; 168 h, 7 days in culture): 9 µM
burden of senescent cells in mice (senescent cells): reduced burden of senescent cells
senescent SCs in mouse skeletal muscle (scRNA seq) (SCs [9]): reduces the fraction
senescent FAPs in mouse skeletal muscle (scRNA seq) (FAPs [10]): reduces the fraction
avg_logFC of gene Capza2 (FAPs [10]; sheet abt_down, gene Capza2, cluster c7, scRNA-seq differential expression): -0.2501
avg_logFC of gene Coq10b (FAPs [10]; sheet abt_down, gene Coq10b, cluster c7, scRNA-seq differential expression): -0.25
avg_logFC of gene Hes1 (FAPs [10]; sheet abt_down, gene Hes1, cluster c1, scRNA-seq differential expression): -0.2504
avg_logFC of gene Pds5b (FAPs [10]; sheet abt_down, gene Pds5b, cluster c9, scRNA-seq differential expression): -0.2501
avg_logFC of gene Qpct (FAPs [10]; sheet abt_down, gene Qpct, cluster c3, scRNA-seq differential expression): -0.2504
avg_logFC of gene Creld2 (FAPs [10]; sheet abt_up, gene Creld2, cluster c4, scRNA-seq differential expression): 0.8182
avg_logFC of gene Cxcl14 (FAPs [10]; sheet abt_up, gene Cxcl14, cluster c5, scRNA-seq differential expression): 0.8906
avg_logFC of gene Myl9 (FAPs [10]; sheet abt_up, gene Myl9, cluster c9, scRNA-seq differential expression): 0.9071
avg_logFC of gene Plac8 (FAPs [10]; sheet abt_up, gene Plac8, cluster c3, scRNA-seq differential expression): 0.7972
avg_logFC of gene Tpm2 (FAPs [10]; sheet abt_up, gene Tpm2, cluster c9, scRNA-seq differential expression): 1.1381
